Legend:
[1] = Particle size analysis by laser diffraction (LA-950, Horiba); type: physicochemical; details: for particle size distribution (PSD) after milling: 25% (w/v) genistein in olive oil, nanomilled 60 minutes in YTZ media, initial measurement; for D(0.50) particle size: material as provided by the commercial supplier (DSM), before milling
Text: In the context of the present description, the particle size distribution of a given material is provided in volume diameter as measured in accordance with USP 429 using a laser diffraction particle size analyzer operating in the Mie Scattering Theory diffraction mode and equipped with a suspension dispersion sample chamber (e.g., as available from Horiba Instruments, Irvine, Calif., USA). For purposes of the present description, volume diameter is given as a particle size distribution defined by one or more of D (0.10), D (0.50) and D (0.90). When referred to herein, the term D (0.10) indicates the volume frequency distribution of particles for which 10% of the sample is below the referenced size, the term D (0.50) indicates the volume frequency distribution of particles for which 50% of the sample is below the referenced size, and the term D (0.90) indicates the volume frequency distribution of particles for which 90% of the sample is below the referenced size. In addition to measurement of the particle size distribution via laser diffraction, the results from such particle size analysis and/or the morphology of the particles may be confirmed using known electron microscopy techniques.
Genivida™, a food grade genistein, and Bonistein®, a pharmaceutical grade genistein, were obtained from a commercial supplier (DSM, http://www.dsm.com/corporate/home.html) and subjected to particle size analysis. […] FIG. 1 and FIG. 2 illustrate the PSD of the Genivida™ and Bonistein® materials as supplied from DSM.
The Genivida™ and Bonistein® materials were dispersed within the olive oil to provide a suspension composition that included 25% (w/v) genistein. Several samples ≈200 ml per sample) of the 25% w/v genistein/olive oil suspension were divided and milled using a, MiniCer® nanomill from Netzsch. The samples containing Bonistein® were milled for 60 minutes in a 0.3 mm YTZ media (yttria stabilized zirconium oxide (ZrO2) beads). Samples containing Genivida™ were milled for 60 minutes in a 0.5 mm YTZ media.
A selection of the samples containing Genivida™ were subjected to a pre-milling process (referred to or labeled as “pre-grind” samples). The pre-milling process also utilized a MiniCer® nanomill from Netzsch with YTZ milling media. However, the milling media utilized in the pre-milling step was 1.25 mm YTZ media. Pre-milling was carried out for 20 minutes, with the purpose of reducing the D(0.50) particle size of the Genivida™ to below 10 μm. After pre-milling, those samples subjected to the pre-milling procedure were milled in a MiniCer® nanomill for 60 minutes in a 0.3 mm YTZ media.
After the milling steps, particle size analysis was completed for each sample. […]

[2] = Particle size stability of genistein/olive oil nanosuspensions stored at ambient temperature (laser diffraction and TEM); type: physicochemical; details: suspended in olive oil, glass vials
Text: After the milling steps, particle size analysis was completed for each sample. […] An amount of each nanosuspension composition was aliquoted into 3.7 cc glass vials, which were then stored at ambient temperature.
At approximately two months, samples were taken from each vial and subjected to laser diffraction particle size analysis and TEM analysis.
At the 3-month time point, a sample of each nanosuspension was taken from each vial and again subjected to laser diffraction particle size analysis and TEM analysis. Even after three months, the genistein material suspended in the olive oil remained nano-sized, with the D(0.50) at 3 months in all cases being <300 nm (see, FIGS. 3A-3C).
For each of the samples at each time point, particle size analysis conducted by laser diffraction was carried out using a LA-950 particle size analyzer from Horiba Scientific, Edison, N.J.

Structure (SMILES)	particle size distribution (PSD) after milling [1]	D(0.50) particle size [1]	D(0.50) at 3 months ([2]; 3 months, all samples)	particle size distribution (PSD) after storage ([2]; approximately two months, laser diffraction and TEM)
O=c1c(-c2ccc(O)cc2)coc2cc(O)cc(O)c12 [Genivida™]	nanoparticulate PSD	29.5 μm		
O=c1c(-c2ccc(O)cc2)coc2cc(O)cc(O)c12 [genistein, 5,7-dihydroxy-3-(4-hydroxyphenyl)-chromen-4-one]			< 300 nm	maintained a nanoparticulate PSD
O=c1c(-c2ccc(O)cc2)coc2cc(O)cc(O)c12 [Bonistein®]	nanoparticulate PSD	10.7 μm		

Source: US10314812B2, “Suspension compositions of physiologically active phenolic compounds and methods of making and using the same” (Humanetics Corporation, priority 2013, dated 2019)
